pIC50: −log10 of the molar value.
What was measured:
[1] = molecular target: T1, High affinity nerve growth factor receptor (Homo sapiens, UniProt P04629); assay: Inhibition of TrkA (unknown origin) by cell-based assay
[2] = molecular target: T2, BDNF/NT-3 growth factors receptor (Homo sapiens, UniProt Q16620); assay: Inhibition of TrkB (unknown origin) by cell-based assay
[3] = Apparent permeability from basolateral side to apical side of MDCK cells; assay type: ADME, cell-based, Canis lupus familiaris; conditions: dog
[4] = Apparent permeability from apical side to basolateral side of MDCK cells; assay type: ADME, cell-based, Canis lupus familiaris; conditions: dog
[5] = molecular target: T2, BDNF/NT-3 growth factors receptor; assay: Inhibition of TrkB (unknown origin)
[6] = molecular target: T1, High affinity nerve growth factor receptor; assay: Inhibition of TrkA (unknown origin)

T1 sequence (P04629 whole entry): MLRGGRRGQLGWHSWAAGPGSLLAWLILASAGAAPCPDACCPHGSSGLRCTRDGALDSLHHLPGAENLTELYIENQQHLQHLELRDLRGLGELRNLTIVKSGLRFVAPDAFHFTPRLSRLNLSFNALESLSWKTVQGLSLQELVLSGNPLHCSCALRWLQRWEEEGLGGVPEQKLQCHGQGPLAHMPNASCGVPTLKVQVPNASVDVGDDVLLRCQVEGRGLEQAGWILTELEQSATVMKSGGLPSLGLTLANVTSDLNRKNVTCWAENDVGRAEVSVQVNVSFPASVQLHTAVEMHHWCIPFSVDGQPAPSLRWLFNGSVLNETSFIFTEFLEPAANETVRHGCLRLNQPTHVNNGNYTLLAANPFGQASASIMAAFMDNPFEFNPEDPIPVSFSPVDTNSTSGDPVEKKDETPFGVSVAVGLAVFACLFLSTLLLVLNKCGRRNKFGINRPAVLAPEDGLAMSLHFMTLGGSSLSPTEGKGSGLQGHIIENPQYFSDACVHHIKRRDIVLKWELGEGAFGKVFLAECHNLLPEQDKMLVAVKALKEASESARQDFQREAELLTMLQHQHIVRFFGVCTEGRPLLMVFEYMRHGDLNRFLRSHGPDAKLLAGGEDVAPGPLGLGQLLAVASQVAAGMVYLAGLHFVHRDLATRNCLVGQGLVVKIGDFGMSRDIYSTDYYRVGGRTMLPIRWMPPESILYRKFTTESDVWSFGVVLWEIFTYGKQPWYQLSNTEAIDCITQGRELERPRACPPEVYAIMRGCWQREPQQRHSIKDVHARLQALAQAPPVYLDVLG
T2 sequence (Q16620 whole entry): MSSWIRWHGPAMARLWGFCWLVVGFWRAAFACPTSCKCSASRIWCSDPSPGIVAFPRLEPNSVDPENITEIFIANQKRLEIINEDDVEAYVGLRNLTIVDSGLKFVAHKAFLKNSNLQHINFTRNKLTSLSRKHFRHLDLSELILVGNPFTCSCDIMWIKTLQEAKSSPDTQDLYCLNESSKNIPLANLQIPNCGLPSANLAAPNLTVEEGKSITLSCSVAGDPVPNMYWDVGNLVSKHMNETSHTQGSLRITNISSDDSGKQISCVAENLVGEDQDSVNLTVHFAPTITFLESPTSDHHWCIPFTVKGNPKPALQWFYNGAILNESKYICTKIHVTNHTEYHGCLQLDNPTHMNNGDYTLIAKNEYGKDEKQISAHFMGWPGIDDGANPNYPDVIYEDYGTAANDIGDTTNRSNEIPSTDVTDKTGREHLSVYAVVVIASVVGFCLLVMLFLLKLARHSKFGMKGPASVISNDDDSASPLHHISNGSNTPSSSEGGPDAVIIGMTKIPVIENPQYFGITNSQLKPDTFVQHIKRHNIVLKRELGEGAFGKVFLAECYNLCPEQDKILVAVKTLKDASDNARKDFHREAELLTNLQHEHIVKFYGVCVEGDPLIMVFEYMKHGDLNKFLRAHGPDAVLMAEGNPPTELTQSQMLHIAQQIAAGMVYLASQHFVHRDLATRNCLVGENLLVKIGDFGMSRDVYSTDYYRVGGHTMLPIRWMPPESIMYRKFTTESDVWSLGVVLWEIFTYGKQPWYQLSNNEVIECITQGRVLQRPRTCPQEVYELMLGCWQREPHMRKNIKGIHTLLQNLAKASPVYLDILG

CC(C)[C@H](CO)Nc1nc(Nc2ccc(C(=O)O)c(Cl)c2)c2ncn(C(C)C)c2n1 [PURVALANOL B]
pIC50 [1]: 5.77 | pIC50 [2]: 5.89 | Papp B→A [3]: < 5 ×10⁻⁶ cm/s | Papp A→B [4]: 1.1 ×10⁻⁶ cm/s | pIC50 [5]: 7.96 | pIC50 [6]: 7.29

Reference: ChEMBL document CHEMBL3217685, “Quantitative affinity-based chemical proteomics of TrkA inhibitors” (Medchemcomm, 2012)
